Calls of active or inactive are those of the source.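 The calls were made as follows: active = AC50 no more than ten times the top concentration tested, that is within one log above it; inconclusive = flat curve fit with activity between 30% and 70%, or invalid poor fit; inactive = AC50 beyond ten times the top tested dose.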

The subject of this test is S. cerevisiae Mot1-301 ts growth rescue, BacTiter-Glo ATP luminescence. The test can be described thus: restored Mot1-301 yeast growth at 38.5C – whole organism, S. cerevisiae, Mot1-301 ts mutant, luminescence, dose retest, SUMOylation pathway inhibitor project, confirmation (AID 463204).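 Also: growth at restrictive 38.5 degrees C of Mot1-301 OY566 strain; actives raise luminescence by restoring growth of the ts mutant at high temperature.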
On to `CCc1noc(C)c1C(=O)Nc1nc(-c2ccc(F)cc2)c(C)s1`, for which the AC50 is > 42 µM (inactive).

With `Cc1ccc(NS(=O)(=O)c2c(C)[nH]c(C)c2C(=O)N2CCCCC2)c(Cl)c1`, the AC50 is > 42 µM (inactive).

As for `O=c1nc(-c2ccccc2)cn[nH]1`, the AC50 was > 42 µM (inactive).

As for `O=C(c1cc(N2C(=O)C3C4CCC(C4)C3C2=O)ccc1Cl)N1CCN(c2ccccc2)CC1` (centres undefined), the AC50 is > 42 µM (inactive).

For `CCCCCCOc1ccc(N2C(=O)CC(N3CCC(C(=O)OCC)CC3)C2=O)cc1` (centres undefined), the AC50 was 4.96 µM.

For `Cc1c(C(=O)NC(C)c2ccc(-n3ccnc3)cc2)cccc1[N+](=O)[O-]` (centres undefined), the AC50 is > 42 µM (inactive).

Take `CCOc1ccc(NC(=O)CN(C)C(=O)c2ccc(OCc3ccccc3)c(OC)c2)cc1OCC`: the AC50 is > 42 µM (inactive).

For the compound `COc1ccc(OC)c(Cc2nnc(CCC(=O)NCc3ccsc3)o2)c1`, the AC50 was > 42 µM (inactive).

Turning to `COc1ccc(NC(=O)CN2C(=O)c3ccccc3S2(=O)=O)cc1OC`, the AC50 was > 42 µM (inactive).

As to `NC(=O)C1CCCN(C(=S)Nc2cccc3ccccc23)C1` (centres undefined), the AC50 is > 42 µM (inactive).

On to `Cc1ccc2c(C)c(C(=O)N(C)C(C)c3ccncn3)oc2c1C` (centres undefined), for which the AC50 was > 42 µM (inactive).

Consider `COc1cccc(CN(C)C(=O)C2CCC(=O)N(Cc3cccc(F)c3)C2)c1` (centres undefined), for which the AC50 was > 42 µM (inactive).

On to `CCN(CC)C(=O)CSC(Nc1cccc(F)c1)=C(C#N)C#N`, for which the AC50 was > 42 µM (inactive).

As to `Cc1ccc(C(=O)NNc2ncnc3c2cnn3C)cc1`, the AC50 is > 42 µM (inactive).

On to `Cc1cc([N+](=O)[O-])ccc1NC(=O)CSc1nccc(=O)[nH]1`, for which the AC50 is > 42 µM (inactive).

With `COC(=O)c1cccc(NC(=O)CN(c2ccc3c(c2)OCO3)S(C)(=O)=O)c1C`, the AC50 was > 42 µM (inactive).

With `COc1cc(-c2nnc(SCC#CCO)o2)cc(OC)c1OC`, the AC50 was > 42 µM (inactive).

Consider `Cc1ccc(CC(=O)O/N=C(\N)c2cccc([N+](=O)[O-])c2)cc1`, for which the AC50 is > 42 µM (inactive).

Consider `Cc1nn(Cc2ccc(C(=O)Nc3ccccc3C(F)(F)F)o2)c(C)c1Br`, for which the AC50 is > 42 µM (inactive).

On to `O=C(NNS(=O)(=O)c1c(F)cc(F)c(Cl)c1F)C12CC3CC(CC(C3)C1)C2`, for which the concentration at half-maximal activity (AC50) was 3.45 µM.

Turning to `CC(C)c1cc(C(=O)N/N=C/C(Br)=C/c2ccccc2)n[nH]1`, the AC50 was 6.05 µM.

As for `Cc1ccc(Cn2c(NCCc3ccccc3)nc3c2c(=O)n(C)c(=O)n3C)cc1`, the AC50 was > 42 µM (inactive).

In the case of `Cc1ccc(C(=O)NCCCNC(=O)c2ccc(C)nc2)cc1`, the AC50 is > 42 µM (inactive).

In the case of `CCn1c(CSCc2ccc(F)cc2)nnc1SCC(=O)NCc1ccccc1`, the AC50 is > 42 µM (inactive).

For the compound `CSc1nsc(SCC(=O)Nc2cccc(C(=O)O)c2)n1`, the AC50 is > 42 µM (inactive).

`O=C(NCc1ccco1)C1CC(=O)N(c2ccc(Cl)cc2)C1` (centres undefined): the AC50 is > 42 µM (inactive).

In the case of `Cn1c(=O)[nH]c(=O)c2c1nc(NCCN)n2CCOc1ccccc1`, the AC50 was > 42 µM (inactive).

On to `CCCC(=O)Nc1ccc(Sc2ccc([N+](=O)[O-])cc2)cc1`, for which the AC50 is 30.9 µM.

As to `COCCN1C(=O)/C(=C/c2cc3c(cc2Br)OCO3)NC1=S`, the AC50 was > 42 µM (inactive).

Turning to `CC(C)c1ccc(NC(=O)COc2nnc(-c3cccs3)c(-c3cccs3)n2)cc1`, the AC50 was > 42 µM (inactive).

For the compound `CCOc1ccc(Br)cc1S(=O)(=O)N1CCC(C(N)=O)CC1`, the AC50 is > 42 µM (inactive).

As for `CS(=O)(=O)N(CC(=O)N1CCCCCC1)Cc1ccc(Cl)cc1`, the AC50 is > 42 µM (inactive).

With `Cc1ccc(C(C(=O)NCC2CCCO2)N(Cc2ccccc2F)C(=O)Cn2nnc(-c3cccs3)n2)cc1` (centres undefined), the AC50 is > 42 µM (inactive).

With `COc1ccc(N(C(=O)c2ccncc2)S(=O)(=O)c2ccc(F)cc2)cc1`, the AC50 is > 42 µM (inactive).

Turning to `NS(=O)(=O)c1ccc(CCNC(=O)CN2CCN(c3ccc(F)cc3)CC2)cc1`, the AC50 was > 42 µM (inactive).

In the case of `Cc1ccc(C(=O)NCCCN2CCOCC2)cc1`, the AC50 is > 42 µM (inactive).

On to `COc1cccc(/C=N/NC(=O)CNC(=O)c2ccco2)c1O`, for which the AC50 was > 42 µM (inactive).

Turning to `COc1ccc2[nH]c(C(=O)N/N=C/c3ccccc3OC)cc2c1`, the AC50 is > 42 µM (inactive).

Consider `Cn1c(CN2CCOCC2)nnc1SCC(=O)Nc1cc(Cl)ccc1Cl`, for which the AC50 was > 42 µM (inactive).

Turning to `CCOc1ccc(S(=O)(=O)N2CCN(CC(O)COc3cccc([N+](=O)[O-])c3)CC2)cc1` (centres undefined), the AC50 was > 42 µM (inactive).

On to `CCc1c(C(=O)N2CCN(c3ccccc3F)CC2)[nH]c(C)c1C(C)=O`, for which the AC50 was > 42 µM (inactive).

With `Cc1ccc(C)c(NC(NC(=O)c2ccccn2)C(Cl)(Cl)Cl)c1` (centres undefined), the AC50 is > 42 µM (inactive).

Turning to `CCN(C(=O)Cn1nc(C)c([N+](=O)[O-])c1C)c1c(N)n(Cc2ccccc2)c(=O)[nH]c1=O`, the AC50 was > 42 µM (inactive).

With `CCN(C(=O)COC(=O)c1c(-c2ccccc2)noc1C)c1c(N)n(Cc2ccccc2)c(=O)[nH]c1=O`, the AC50 was > 42 µM (inactive).

Turning to `Cc1nnc(NC(=O)c2ccc(-c3cccc(C(F)(F)F)c3)o2)s1`, the AC50 is > 42 µM (inactive).

Regarding `O=C(COC(=O)c1ccccc1SCC(=O)N1CCCC1)NC1CCCCC1`, the AC50 was > 42 µM (inactive).

Turning to `CCOC(=O)C1=C[C@]2(CC)CCCN3CCc4c(n1c1ccccc41)[C@@H]32`, the AC50 is > 42 µM (inactive).

As to `CCCNCc1cc(OCC)c(OCC(N)=O)cc1Br`, the AC50 was > 42 µM (inactive).

For the compound `COc1cc(/C=N/NC2=NS(=O)(=O)c3ccccc32)cc(OC)c1OC`, the AC50 was > 42 µM (inactive).

As to `c1ccc2cc(Cn3ccnc3)ccc2c1`, the AC50 is > 42 µM (inactive).

Regarding `COc1cc(CN2CCC(Oc3cc(C(=O)NC4CC4)ccc3OC)CC2)cc(OC)c1`, the concentration at half-maximal activity (AC50) is 34.8 µM.

Regarding `Cc1ccc(NS(=O)(=O)c2cc(C(=O)Nc3cccc([N+](=O)[O-])c3)ccc2C)cc1`, the AC50 was > 42 µM (inactive).

On to `O=C(Nc1ccc2oc(-c3ccccc3F)nc2c1)c1ncn[nH]1`, for which the AC50 is > 42 µM (inactive).

With `CCS(=O)c1ccccc1C(=O)O` (centres undefined), the AC50 was > 42 µM (inactive).

On to `Cc1ccc(SCC(=O)O/N=C(\N)c2cccc([N+](=O)[O-])c2)cc1`, for which the AC50 is > 42 µM (inactive).

`COC(=O)C1=C(C)NC(C)=C([N+](=O)[O-])C1c1ccccc1C(F)(F)F` (centres undefined): the AC50 was > 42 µM (inactive).

In the case of `CN(C)CCNC(=O)c1onc(CSc2ccc(F)c(F)c2)c1C(=O)NCCN(C)C`, the AC50 was > 42 µM (inactive).

In the case of `CC1CN(Cc2ccccc2)c2nc3c(c(=O)[nH]c(=O)n3C)n2C1` (centres undefined), the AC50 is > 42 µM (inactive).

In the case of `COc1ccccc1CCNC(=O)/C(=C/c1cccnc1)NC(=O)c1ccccc1`, the AC50 was > 42 µM (inactive).

Take `O=C(NCc1cccc(F)c1F)C1CCC(=O)N(C2CC2)C1` (centres undefined): the AC50 is > 42 µM (inactive).

As to `O=S(=O)(Cc1ccccc1)N1CCN(c2ccccc2)CC1`, the AC50 was > 42 µM (inactive).

For `CC1=CC(=O)C=CC1(C)C(Cl)(Cl)Cl` (centres undefined), the AC50 was > 42 µM (inactive).

For `CCN1C(=S)N[C@@H](CCc2ccccc2)C(C(=O)OC)=C1C`, the AC50 is > 42 µM (inactive).

On to `Cc1ccccc1OCc1nc(-c2ccccc2)no1`, for which the AC50 was > 42 µM (inactive).

As to `COc1ccc(/C=C/C(=O)N2CCC(C(N)=O)CC2)cc1S(=O)(=O)N1CCOCC1`, the AC50 is > 42 µM (inactive).

Turning to `CCNC(=O)NC(C(=O)OC)C12CC3CC(CC(C3)C1)C2` (centres undefined), the AC50 was > 42 µM (inactive).

As to `CCc1cccc(C)c1NC(=O)CSc1nnc(-c2cc3cc(Br)ccc3o2)n1CC`, the AC50 was > 42 µM (inactive).

On to `O=C(Oc1ccc2c(c1)OCO2)c1cccs1`, for which the AC50 was > 42 µM (inactive).

Turning to `Cc1cccc(NC(=S)NCc2ccco2)c1C`, the AC50 was > 42 µM (inactive).

For the compound `CC(C)C(=O)Nc1ccc(-c2nc3cccnc3o2)cc1`, the AC50 is > 42 µM (inactive).

As for `COc1ccc(-c2csc(NC(=O)C3CSC4(C)CCC(=O)N34)n2)cc1` (centres undefined), the AC50 is > 42 µM (inactive).

Take `CCCNc1nc2ccccc2c(=O)[nH]1`: the AC50 was > 42 µM (inactive).

As for `CCOC(=O)C1CCN(CC(O)COCc2ccccc2)CC1` (centres undefined), the AC50 was > 42 µM (inactive).

Regarding `O=C(O)COc1ccc(=O)n(-c2ccccc2)n1`, the AC50 is > 42 µM (inactive).

`Cc1sc2nc(N)sc2c1C`: the AC50 was > 42 µM (inactive).

In the case of `CCn1c(SCc2nc3ccccc3[nH]2)nnc1-c1cccnc1`, the AC50 was > 42 µM (inactive).

As for `CCCCC(=O)Nc1nnc(/C=C/c2ccc(OC)cc2)s1`, the AC50 is > 42 µM (inactive).

As to `CC(C)NC(=O)CCCc1cn(C)c2ccccc12`, the AC50 is > 42 µM (inactive).

For the compound `COC(=O)c1ccccc1N(C)S(C)(=O)=O`, the AC50 was > 42 µM (inactive).

For the compound `CCOC(=O)c1cnc2c(C)c(Cl)ccc2c1N1CCOCC1`, the AC50 is > 42 µM (inactive).

For the compound `Cc1cc(NC(=O)CC2CCCC2)ccc1Br`, the AC50 was > 42 µM (inactive).

As to `CCN(CC)C(=O)Cn1c(=O)n(CCCC(=O)NCc2ccccc2)c(=O)c2sccc21`, the AC50 was > 42 µM (inactive).

`O=C(NCC(c1cccs1)N1CCOCC1)c1ccccc1NS(=O)(=O)c1cc([N+](=O)[O-])ccc1Cl` (centres undefined): the AC50 was > 42 µM (inactive).

On to `O=C(COC(=O)C1CC(=O)N(Cc2ccccc2)C1)Nc1ccccc1F` (centres undefined), for which the AC50 was > 21 µM (inactive).

In the case of `CCOc1ccc(-c2nnc(SCC(=O)N3CCCC3)o2)cc1`, the AC50 was > 42 µM (inactive).

As to `CC(C)(C)c1ccc(C(=O)NCCC(=O)N2CCN(c3ncccn3)CC2)cc1`, the AC50 is > 42 µM (inactive).

Consider `O=C(COc1cccnc1[N+](=O)[O-])Nc1ccc2c(c1)CCC2`, for which the AC50 was > 21 µM (inactive).

`CN(c1ccccc1)c1ccc(/C=C/[N+](=O)[O-])cc1`: the AC50 was 5.85 µM.

In the case of `COc1ccccc1-n1nnnc1SCC(=O)Nc1ccc(C)c(N)c1`, the AC50 is > 42 µM (inactive).

By AC50 is commonly meant the midpoint of the concentration-response curve, whichever way the signal moves.

Source of the values: PubChem BioAssay AID463204 (Broad Institute, 2010).
